Data: PubChem BioAssay (NCI)
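48-hour exposure; five concentrations; linearly interpolated endpoints. TGI: concentration producing complete growth inhibition.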

Experiments:
Assay in all cases: growth of human tumour cells (NCI), 48 h
UACC-257 melanoma = system: UACC-257 melanoma
NCI-H522 lung = system: NCI-H522 lung
CAKI-1 renal = system: CAKI-1 renal
K-562 leukemia = system: K-562 leukemia
SF-268 CNS = system: SF-268 CNS
SW-620 colon = system: SW-620 colon
UO-31 renal = system: UO-31 renal
A498 renal = system: A498 renal
SR leukemia = system: SR leukemia
HCT-116 colon = system: HCT-116 colon
M19-MEL melanoma = system: M19-MEL melanoma
SNB-78 CNS = system: SNB-78 CNS
HCT-15 colon = system: HCT-15 colon
MALME-3M melanoma = system: MALME-3M melanoma
NCI-H460 lung = system: NCI-H460 lung
M14 melanoma = system: M14 melanoma
HT29 colon = system: HT29 colon
LOX IMVI melanoma = system: LOX IMVI melanoma
NCI-H226 lung = system: NCI-H226 lung
TK-10 renal = system: TK-10 renal
IGROV1 ovarian = system: IGROV1 ovarian
COLO 205 colon = system: COLO 205 colon
HL-60(TB) leukemia = system: HL-60(TB) leukemia
OVCAR-5 ovarian = system: OVCAR-5 ovarian
NCI-H23 lung = system: NCI-H23 lung
ACHN renal = system: ACHN renal
U251 CNS = system: U251 CNS
OVCAR-8 ovarian = system: OVCAR-8 ovarian
KM12 colon = system: KM12 colon
SF-295 CNS = system: SF-295 CNS
LXFL 529 NSCLC = system: LXFL 529 NSCLC
SK-MEL-5 melanoma = system: SK-MEL-5 melanoma
RXF-631 renal = system: RXF-631 renal
SK-MEL-2 melanoma = system: SK-MEL-2 melanoma
EKVX NSCLC = system: EKVX NSCLC
OVCAR-4 ovarian = system: OVCAR-4 ovarian
OVCAR-3 ovarian = system: OVCAR-3 ovarian
DLD-1 colon = system: DLD-1 colon
KM20L2 colon = system: KM20L2 colon
SN12C renal = system: SN12C renal
DMS 114 small cell lung = system: DMS 114 small cell lung
CCRF-CEM leukemia = system: CCRF-CEM leukemia
RPMI-8226 leukemia = system: RPMI-8226 leukemia
SK-OV-3 ovarian = system: SK-OV-3 ovarian
HOP-62 NSCLC = system: HOP-62 NSCLC
SNB-19 CNS = system: SNB-19 CNS
UACC-62 melanoma = system: UACC-62 melanoma

C=CC1(C)CCC2=C(CCC3C(C)(C(=O)OC)CCCC23C)C1=O (configuration not stated)
TGI (UACC-257 melanoma): 55.9 µM | TGI (NCI-H522 lung): 29.3 µM | TGI (CAKI-1 renal): 87.1 µM | TGI (K-562 leukemia): > 100 µM | TGI (SF-268 CNS): 34.9 µM | TGI (SW-620 colon): 33.5 µM | TGI (UO-31 renal): 42.8 µM | TGI (A498 renal): 28.4 µM | TGI (SR leukemia): 42 µM | TGI (HCT-116 colon): 31.1 µM | TGI (M19-MEL melanoma): 36 µM | TGI (SNB-78 CNS): 80.1 µM | TGI (HCT-15 colon): 42.7 µM | TGI (MALME-3M melanoma): 32.8 µM | TGI (NCI-H460 lung): 36.5 µM | TGI (M14 melanoma): 38.7 µM | TGI (HT29 colon): 31.2 µM | TGI (LOX IMVI melanoma): 34.3 µM | TGI (NCI-H226 lung): 40.2 µM | TGI (TK-10 renal): 56.4 µM | TGI (IGROV1 ovarian): 37.1 µM | TGI (COLO 205 colon): 34.6 µM | TGI (HL-60(TB) leukemia): 55.2 µM | TGI (OVCAR-5 ovarian): 29.5 µM | TGI (NCI-H23 lung): 54.5 µM | TGI (ACHN renal): 31.9 µM | TGI (U251 CNS): 29 µM | TGI (OVCAR-8 ovarian): > 100 µM | TGI (KM12 colon): 31.5 µM | TGI (SF-295 CNS): 72.5 µM | TGI (LXFL 529 NSCLC): 36.4 µM | TGI (SK-MEL-5 melanoma): 30.3 µM | TGI (RXF-631 renal): 31.6 µM | TGI (SK-MEL-2 melanoma): 33.9 µM | TGI (EKVX NSCLC): 32.8 µM | TGI (OVCAR-4 ovarian): 28.2 µM | TGI (OVCAR-3 ovarian): 35.3 µM | TGI (DLD-1 colon): 36.5 µM | TGI (KM20L2 colon): 40.3 µM | TGI (SN12C renal): 33 µM | TGI (DMS 114 small cell lung): 32.7 µM | TGI (CCRF-CEM leukemia): 68 µM | TGI (RPMI-8226 leukemia): 55.9 µM | TGI (SK-OV-3 ovarian): 34.4 µM | TGI (HOP-62 NSCLC): 31.3 µM | TGI (SNB-19 CNS): > 100 µM | TGI (UACC-62 melanoma): 33.7 µM
